Results on 4 compounds are retold here after ChEMBL document CHEMBL1128916, “Phosphoramidate derivatives of d4T with improved anti-HIV efficacy retain full activity in thymidine kinase-deficient cells” (Bioorg Med Chem Lett, 1996).

What all share (conditions): Homo sapiens
Test [1] relates to CCRF-CEM. Nature of the test: Compound was evaluated for the cytotoxic concentration to inhibit HIV replication in CEM cells. The format is functional.
Test [2] deals with CCRF-CEM. Nature of the test: Compound was evaluated for the inhibition of HIV replication using HIV-2 infected CEM cells. The format is functional, cell-based.
Test [3] has as its system CCRF-CEM. The experiment in a line: Compound was evaluated for the inhibition of HIV replication using HIV-2 infected CEM-TK- cells. The format is functional, cell-based.
Test [4] has as its system CCRF-CEM. Nature of the test: Compound was evaluated for the inhibition of HIV replication using HIV-1 infected CEM cells. The format is functional, cell-based.

Take `Cc1cn(C2C=CC(COP(=O)(NC(C)C(=O)OCc3ccccc3)Oc3ccccc3)O2)c(=O)[nH]c1=O` (stereo unspecified): in the test on CCRF-CEM [1], half-maximal cytotoxicity (CC50) was put at 52000 nM. Moreover, the results for the EC50 with CCRF-CEM [2], in the test on CCRF-CEM [3] and in the test with CCRF-CEM [4] were 39 nM, 60 nM and 22 nM, respectively.

On to `Cc1cn([C@H]2C[C@H](N=[N+]=[N-])[C@@H](CO)O2)c(=O)[nH]c1=O` [ZIDOVUDINE], for which, in the test with CCRF-CEM [1], the CC50 was above 100000 nM. Also, the EC50 is 8 nM in the test with CCRF-CEM [2], above 100000 nM in the test with CCRF-CEM [3] and 5 nM in the test on CCRF-CEM [4].

Turning to `Cc1cn([C@H]2C=C[C@@H](CO)O2)c(=O)[nH]c1=O` [STAVUDINE], the CC50 in the test on CCRF-CEM [1] is above 100000 nM. The values for the EC50 in the test on CCRF-CEM [2], in the test on CCRF-CEM [3] and in the test with CCRF-CEM [4] were 270 nM, 25000 nM and 160 nM, respectively.

As to `COC(=O)C(C)NP(=O)(OC[C@@H]1C=C[C@H](n2cc(C)c(=O)[nH]c2=O)O1)Oc1ccccc1` (stereo partly specified), the CC50 in the test with CCRF-CEM [1] is above 100000 nM. Besides, the EC50 in the test with CCRF-CEM [2] amounted to 102 nM; in the test on CCRF-CEM [3] it was 75 nM; with CCRF-CEM [4], 85 nM.

A word on the CC50: it is the concentration giving 50% cytotoxicity. One may read the EC50 as the concentration needed to bring the measured effect to its halfway point. Higher therefore signals a less potent agent.
